Assay results reported in patent US20100166701A1, “METHOD FOR TREATING RENAL CELL CARCINOMA USING GLYCOGENOLYSIS INHIBITORS” (priority 2008, published 2010).
“Also recorded” adds a separate entry of the source. Read-outs that look alike come from different tables or passages of the source.

Experiments:
[1] = tested on: prostate cancer cells; conditions: cited from earlier work
[2] = tested on: human Caki-2 RCC cells; experiment: Induction of glycogenosis in Caki-2 RCC cells by activators of the hypoxia pathway; assay type: cell-based
Procedure: To test this hypothesis it was first necessary to establish an in vitro model of glycogenosis in a relevant clear cell renal cell carcinoma (ccRCC) cell type (CAKI-2 cells). It was first necessary to induce levels of glycogenosis similar to those measured in human disease. We obtained human RCC biopsies (FIG. 4 B) and compared glycogen levels with neighboring grossly uninvolved tissue (GU). […] We treated human Caki-2 RCC cells with known activators of hypoxia pathway in 20 mM glucose for 24 h: 100 μM cobalt chloride, 100 μM desferrioxamine (DFO), and hypoxia (pO2=1%) (FIG. 4 A).
We therefore repeated the induction of glycogenosis with DFO after prior treatment with HIF-1α RNAi (FIG. 5).

[3] = tested on: HIF protein; experiment: Immunoblot of HIF protein levels in Caki-2 cells; assay type: cell-based, human; conditions: 100 μM, 20 mM glucose, 24 h
Procedure: To test this hypothesis it was first necessary to establish an in vitro model of glycogenosis in a relevant clear cell renal cell carcinoma (ccRCC) cell type (CAKI-2 cells). It was first necessary to induce levels of glycogenosis similar to those measured in human disease. We obtained human RCC biopsies (FIG. 4 B) and compared glycogen levels with neighboring grossly uninvolved tissue (GU). There was a […] induction of glycogen levels in human RCC (1±1 to 230±40 μg glucose/mg protein, p<0.01). We treated human Caki-2 RCC cells with known activators of hypoxia pathway in 20 mM glucose for 24 h: 100 μM cobalt chloride, 100 μM desferrioxamine (DFO), and hypoxia (pO2=1%) (FIG. 4 A).

[4] = tested on: CAKI-2 cells; experiment: Cell death by propidium iodide inclusion (FACScan) under nutrient deprivation and azide; assay type: cell-based, human
Procedure: The invention was tested in an in vitro model. CAKI-2 cells were pre-incubated in the presence of 300 μM desferrioximine (DFO, solid line) in RPMI1640 and 10% fetal calf serum to induce the accumulation of glycogen. After 16 hours the media was changed to DMEM with 0 mM glucose and 0 mM pyruvate for 4 hours, to mimic the absence of nutrient as present in the interior of a tumor or resulting from treatment with anti-angiogenic inhibitors, increasing concentrations of sodium azide (0 to 100 mM) to mimic the absence of oxygen, and the presence or absence of 60 μM CP-316819 to specifically target glycogenolysis (CP, closed circles). Cells were then trypsinized, collected, treated with 0.1 mg propidium iodide in KRBH buffer (25 mM HEPES 7.4, 120 mM NaCl, 4.6 mM KCl, 1.9 mM CaCl2, 1 mM MgSO4, and 1.2 mM KH2PO4), and analyzed for cell death by measuring inclusion of propidium iodide on a FACScan instrument ([…]).

[5] = tested on: pancreatic tumor cells; conditions: cited from earlier work
[6] = cited from earlier work
[7] = tested on: RCC; conditions: clinical trials; cited from earlier work
[8] = tested on: CAKI-2 cells; experiment: Glycogen mobilization in glucose-starved CAKI-2 cells; assay type: cell-based, human
Excerpt: Caki-2 cells loose glycogen when starved of glucose in the media and not when there was abundant glucose (p<0.05). As proposed in the invention glycogen reserves are responsive to the metabolic status of the carcinoma cell and are mobilized in response to metabolic stress.
We also tested whether glycogen mobilization could be inhibited pharmacologically (FIG. 6B). We therefore treated glucose-starved CAKI-2 cells with two types of glycogenolysis inhibitor: CP-316819 (▪), which inhibits glycogen phosphorylase and NN-DNJ (♦), which inhibits lysosomal glycogen breakdown. […] After 4 h glycogen loss was restricted to 25% and roughly ⅓^rd was still present after 20 h in glucose free media (p<0.05).

[9] = tested on: RCC; conditions: high dose, cited from earlier work
[10] = 100 μM, 20 mM glucose, 24 h, Caki-2 cells

CN(C)C(=O)[C@H](O)[C@H](Cc1ccccc1)NC(=O)c1cc2cc(Cl)ccc2[nH]1 [CP-91149]
glycogen content [1]: two-fold increase | reduction in cell number [1]: 50%

CC(=O)N(O)CCCCCNC(=O)CCC(=O)N(O)CCCCCNC(=O)CCC(=O)N(O)CCCCCN [DFO, desferrioxamine]
glycogen level (glycogenosis) [2, 10]: 320±90 μg glucose/mg protein | increase of glycogen levels ([2]; CAKI-2 cells, DFO treatment): 9 fold | stabilization of HIF protein levels [3]: able to stabilize HIF protein levels | resistance to cell death ([4]; pre-incubated 300 μM DFO 16 hours, 100 mM azide, 0 mM glucose 4 hours): significantly resistant to cell death

O=C(N[C@@H](Cc1ccc(F)cc1)C(=O)N1CCC(O)CC1)c1cc2cc(Cl)ccc2[nH]1 [CP-320626]
flux into fatty acid synthesis and the pentose phosphate cycle ([5]; concentrations below those required for anti-proliferative and pro-apoptotic effects): inhibited | flux of glucose through the TCA cycle ([5]; pancreatic tumor cells): decreased

CCCCCCCCCN1C[C@H](O)[C@@H](O)[C@H](O)[C@H]1CO [NN-DNJ, N-(n-Nonyl)deoxynojirimycin]
duration of sustained increases in hepatic glycogen levels ([6]; mice): at least 120 days | body weight ([6]; mouse, in vivo): did not lose body weight | hypoglycemia ([6]; mouse, in vivo): did not suffer hypoglycemia below normal fasting levels

CCN(CC)CCNC(=O)c1c(C)[nH]c(/C=C2\C(=O)Nc3ccc(F)cc32)c1C [sunitinib malate]
median increase in survival [7]: 16.4 months | response [7]: 24% to 40% | stable disease, additional patients [7]: 27% to 46%

[Cl][Co][Cl] [cobalt chloride]
induction of glycogenosis to a level equivalent to human RCC biopsies [2, 10]: Only DFO, the iron chelator, was able to induce glycogenosis | stabilization of HIF protein levels [3]: only DFO was able to stabilize HIF protein levels

CP-316819
glycogen loss ([8]; after 4 h, glucose-starved CAKI-2 cells): 25% | glycogen still present (fraction) ([8]; after 20 h in glucose free media): roughly ⅓ | reducing glycogen breakdown (comparison of the two inhibitors) ([8]; glucose-starved CAKI-2 cells): most effective at reducing glycogen breakdown | protection of glycogen-loaded cells against cell death ([4]; 60 μM CP-316819, DFO-pretreated cells, 0 mM glucose, 0 mM pyruvate, 4 hours, sodium azide): this protection is lost; also recorded: removed that protection

ferric ammonium citrate
DFO-dependent glycogen accumulation ([2]; incubated in 150 μM ferric ammonium citrate): did not occur

bevacizumab: humanized monoclonal antibody, VEGF receptor antagonist
survival ([9]; after three years): no difference in survival | response [9]: 30%
